Experiments:
[1] = Solubility (insoluble, not tested in animals); type: physicochemical
Pneumocystis carinii [2] = assay: Treatment of Pneumocystis carinii pneumonia in Sprague-Dawley rats (extent of disease by histologic score); type: in vivo, male Sprague-Dawley rats; conditions: for Extent of Disease by Histologic Score: number of animals with score 0.5 / Extent of disease by histologic score (combined): number of animals in scoring group 0.5: 0.5 = <10 cysts found per 2 sections; for Extent of Disease by Histologic Score: number of animals with score 1 / Extent of disease by histologic score (combined): number of animals in scoring group 1: 1 = scattered cysts, <5% of lung involved; for Extent of Disease by Histologic Score: number of animals with score 2 / Extent of disease by histologic score (combined): number of animals in scoring group 2: 2 = scattered cysts; for Extent of Disease by Histologic Score: number of animals with score 2: 5-10% lung involved or small foci of infection; for Extent of Disease by Histologic Score: number of animals with score 3 / Extent of disease by histologic score (combined): number of animals in scoring group 3: 3 = scattered cysts; for Extent of disease by histologic score (combined): number of animals in scoring group 0.5 / Extent of disease by histologic score (combined): number of animals in scoring group 1 / Extent of disease by histologic score (combined): number of animals in scoring group 2 / Extent of disease by histologic score (combined): number of animals in scoring group 3 / Extent of disease by histologic score (combined): number of animals in scoring group 4: Table XII composite; for Extent of disease by histologic score (combined): number of animals in scoring group 2: 5-10% of lung involved; for Efficacy in treating Pneumocystis carinii (words): 2.5 mg/kg
[3] = Toxicity of amidines in rats (standard laboratory procedure); type: in vivo
Description: Compounds having the structure represented by Formula I were synthesized in accordance with the appropriate procedures discussed previously. The reaction schemes shown in Charts I-III specifically identify the methodology used to synthesize the compounds of the respective examples. The compounds which were synthesized are shown in Table IA and the elemental analysis and melting points of the compounds are shown in Table IB. Most of the compounds were tested for toxicity in rats using standard laboratory procedure and the results of that toxicity testing are shown in Table XII. The compounds of Examples 31, 32, and 34 were not synthesized but may be synthesized in the general manner discussed previously.

Pneumocystis carinii [4] = conditions: in vivo; cited from earlier work
[5] = intramuscular and intravenous routes; cited from earlier work

## N=C(N)c1ccc(OCCOc2ccc(C(=N)N)cc2)cc1 [Example 1]
[1]
  Solubility (not tested in animals - insoluble): insoluble

## N=C(N)c1ccc(OCCOc2ccc(C(=N)N)cc2[N+](=O)[O-])c([N+](=O)[O-])c1 [Example 2]
[1]
  Solubility (not tested in animals - insoluble): insoluble

## N=C(N)c1ccc(OCCCCCOc2ccc(C(=N)N)cc2)cc1 [Example 12, Pentamidine, reference compound]
Pneumocystis carinii [2]; 0.1 mg/kg
  Extent of Disease by Histologic Score: number of animals with score 0.5: 0 animals
  Extent of Disease by Histologic Score: number of animals with score 1: 0 animals
  Extent of Disease by Histologic Score: number of animals with score 2: 0 animals
Pneumocystis carinii [2]; 0.1 mg/kg, 10-50% of lung involved
  Extent of Disease by Histologic Score: number of animals with score 3: 7 animals
Pneumocystis carinii [2]; 0.1 mg/kg, 4 = >50% of lung involved
  Extent of Disease by Histologic Score: number of animals with score 4: 5 animals
Pneumocystis carinii [2]; 1 mg/kg
  Extent of Disease by Histologic Score: number of animals with score 0.5: 1 animals
  Extent of Disease by Histologic Score: number of animals with score 1: 0 animals
  Extent of Disease by Histologic Score: number of animals with score 2: 3 animals
Pneumocystis carinii [2]; 1 mg/kg, 10-50% of lung involved
  Extent of Disease by Histologic Score: number of animals with score 3: 5 animals
Pneumocystis carinii [2]; 1 mg/kg, 4 = >50% of lung involved
  Extent of Disease by Histologic Score: number of animals with score 4: 3 animals
Pneumocystis carinii [2]; 10 mg/kg i.v. daily, 14 days, 4 = >50% of lung involved with many intense areas of focal infection
  Extent of Disease by Histologic Score: number of animals with score 4: 0 animals
Pneumocystis carinii [2]; 10 mg/kg
  Extent of disease by histologic score (combined): number of animals in scoring group 0.5: 20 animals
  Extent of disease by histologic score (combined): number of animals in scoring group 1: 26 animals
  Extent of disease by histologic score (combined): number of animals in scoring group 2: 12 animals
Pneumocystis carinii [2]; 10 mg/kg, 10-50% of lung involved
  Extent of disease by histologic score (combined): number of animals in scoring group 3: 2 animals
Pneumocystis carinii [2]; 10 mg/kg, 4 = >50% of lung involved
  Extent of disease by histologic score (combined): number of animals in scoring group 4: 0 animals
[3]; dose as in value, else not given in Table XIII (10 mg/kg test dose)
  Toxicity of amidines: Effect: Some hypotension, edematous tails
Pneumocystis carinii [4]
  Known effectiveness against Pneumocystis carinii pneumonia: effective in the treatment of, or prophylaxis against Pneumocystis carinii pneumonia

## N=C(N)c1ccc(OCCCCCOc2ccc(C(=N)N)cc2Br)c(Br)c1 [Example 16]
[1]
  Solubility (not tested in animals - insoluble): insoluble

## COc1cc(C2=NCCN2)ccc1OCCCCCOc1ccc(C2=NCCN2)cc1OC [Example 43]
Pneumocystis carinii [2]; 5 mg/kg i.v. daily, 14 days
  Extent of Disease by Histologic Score: number of animals with score 0.5: 1 animals
  Extent of Disease by Histologic Score: number of animals with score 1: 3 animals
  Extent of Disease by Histologic Score: number of animals with score 2: 1 animals
Pneumocystis carinii [2]; 5 mg/kg i.v. daily, 14 days, 10-50% of lung involved with some intense areas of infection
  Extent of Disease by Histologic Score: number of animals with score 3: 2 animals
Pneumocystis carinii [2]; 5 mg/kg i.v. daily, 14 days, 4 = >50% of lung involved with many intense areas of focal infection
  Extent of Disease by Histologic Score: number of animals with score 4: 0 animals
Pneumocystis carinii [2]; tested at 5 mg/kg
  Extent of disease by histologic score (combined): number of animals in scoring group 0.5: 1 animals
  Extent of disease by histologic score (combined): number of animals in scoring group 1: 3 animals
  Extent of disease by histologic score (combined): number of animals in scoring group 2: 1 animals
Pneumocystis carinii [2]; tested at 5 mg/kg, 10-50% of lung involved
  Extent of disease by histologic score (combined): number of animals in scoring group 3: 2 animals
Pneumocystis carinii [2]; tested at 5 mg/kg, 4 = >50% of lung involved
  Extent of disease by histologic score (combined): number of animals in scoring group 4: 0 animals
Pneumocystis carinii [2]; compound at 5 mg/kg
  Efficacy in treating PCP compared with control: significantly better than the control
[3]; rat, in vivo, 5 mg/kg
  Toxicity of amidines: Effect: no toxicity

## COc1cc(C2=NCCN2)ccc1OCCCOc1ccc(C2=NCCN2)cc1OC [Example 44]
Pneumocystis carinii [2]
  Efficacy in treating Pneumocystis carinii (words): very effective in treating Pneumocystis carinii
Pneumocystis carinii [2]; 2.5 mg/kg i.v. daily, 14 days
  Extent of Disease by Histologic Score: number of animals with score 0.5: 6 animals
  Extent of Disease by Histologic Score: number of animals with score 1: 2 animals
  Extent of Disease by Histologic Score: number of animals with score 2: 0 animals
Pneumocystis carinii [2]; 2.5 mg/kg i.v. daily, 14 days, 10-50% of lung involved with some intense areas of infection
  Extent of Disease by Histologic Score: number of animals with score 3: 0 animals
Pneumocystis carinii [2]; 2.5 mg/kg i.v. daily, 14 days, 4 = >50% of lung involved with many intense areas of focal infection
  Extent of Disease by Histologic Score: number of animals with score 4: 0 animals
Pneumocystis carinii [2]; listed as Compound 44
  Efficacy in treating Pneumocystis carinii (words): very good at one fourth the dose level of pentamidine
Pneumocystis carinii [2]; tested at 2.5 mg/kg
  Extent of disease by histologic score (combined): number of animals in scoring group 0.5: 6 animals
  Extent of disease by histologic score (combined): number of animals in scoring group 1: 2 animals
  Extent of disease by histologic score (combined): number of animals in scoring group 2: 0 animals
Pneumocystis carinii [2]; tested at 2.5 mg/kg, 10-50% of lung involved
  Extent of disease by histologic score (combined): number of animals in scoring group 3: 0 animals
Pneumocystis carinii [2]; tested at 2.5 mg/kg, 4 = >50% of lung involved
  Extent of disease by histologic score (combined): number of animals in scoring group 4: 0 animals
Pneumocystis carinii [2]; compound at 2.5 mg/kg
  Efficacy in treating PCP compared with pentamidine: much better than pentamidine at only one fourth the dose
[3]; rat, in vivo, 2.5 mg/kg
  Toxicity of amidines: Effect: no toxicity

## N=C(N)c1ccc(OCCCOc2ccc(C(=N)N)cc2Br)c(Br)c1 [dibromopropamidine]
Pneumocystis carinii [4]
  Known effectiveness against Pneumocystis carinii pneumonia: some effectiveness against PCP

## N=C(N)c1ccc(OCCCCCOc2ccc(C(=N)N)cc2)cc1 [pentamidine isethionate]
[5]
  Side effects / toxicity in patients: Some fatalities have been attributed to severe hypotension, hypoglycemia, and cardiac arrhythmias

Source: patent US4933347A, “Diamidines and bis(imidazolines) for the treatment of and prophylaxis against pneumocystis carinii pneumonia” (University of North Carolina at Chapel Hill, priority 1988, dated 1990)
